The source made the active and inactive calls. How the calls were made is not given here.
Legend:
Assay in all cases: ABHD11 anti-target and serine hydrolase off-target inhibition, late-stage follow-up, selectivity assay for LYPLA1 inhibitor project, LC-MS, SILAC, mouse cells (AID 504522)
AADACL1 = conditions: SILAC ABPP LC-MS, serine hydrolase panel, hits give low values
ABHD10 = conditions: SILAC ABPP LC-MS, serine hydrolase panel, hits give low values
ABHD11 = conditions: SILAC ABPP LC-MS, serine hydrolase panel, hits give low values
ABHD12 = conditions: SILAC ABPP LC-MS, serine hydrolase panel, hits give low values
ABHD6 = conditions: SILAC ABPP LC-MS, serine hydrolase panel, hits give low values
ACOT1 = conditions: SILAC ABPP LC-MS, serine hydrolase panel, hits give low values
ACOT2 = conditions: SILAC ABPP LC-MS, serine hydrolase panel, hits give low values
ACOT7 = conditions: SILAC ABPP LC-MS, serine hydrolase panel, hits give low values
APEH = conditions: SILAC ABPP LC-MS, serine hydrolase panel, hits give low values
BAT5 = conditions: SILAC ABPP LC-MS, serine hydrolase panel, hits give low values
CTSA = conditions: SILAC ABPP LC-MS, serine hydrolase panel, hits give low values
DDHD1 = conditions: SILAC ABPP LC-MS, serine hydrolase panel, hits give low values
DPP4 = conditions: SILAC ABPP LC-MS, serine hydrolase panel, hits give low values
DPP7 = conditions: SILAC ABPP LC-MS, serine hydrolase panel, hits give low values
DPP8 = conditions: SILAC ABPP LC-MS, serine hydrolase panel, hits give low values
DPP9 = conditions: SILAC ABPP LC-MS, serine hydrolase panel, hits give low values
ESD = conditions: SILAC ABPP LC-MS, serine hydrolase panel, hits give low values
FAAH = conditions: SILAC ABPP LC-MS, serine hydrolase panel, hits give low values
FAM108B1 = conditions: SILAC ABPP LC-MS, serine hydrolase panel, hits give low values
FASN = conditions: SILAC ABPP LC-MS, serine hydrolase panel, hits give low values
IAH1 = conditions: SILAC ABPP LC-MS, serine hydrolase panel, hits give low values
LACTB = conditions: SILAC ABPP LC-MS, serine hydrolase panel, hits give low values
LIPA = conditions: SILAC ABPP LC-MS, serine hydrolase panel, hits give low values
LYPLA1 = conditions: SILAC ABPP LC-MS, serine hydrolase panel, hits give low values
LYPLA2 = conditions: SILAC ABPP LC-MS, serine hydrolase panel, hits give low values
LYPLA3 = conditions: SILAC ABPP LC-MS, serine hydrolase panel, hits give low values
PAFAH1B2 = conditions: SILAC ABPP LC-MS, serine hydrolase panel, hits give low values
PAFAH1B3 = conditions: SILAC ABPP LC-MS, serine hydrolase panel, hits give low values
PARL = conditions: SILAC ABPP LC-MS, serine hydrolase panel, hits give low values
PLA2G6 = conditions: SILAC ABPP LC-MS, serine hydrolase panel, hits give low values
PNPLA6 = conditions: SILAC ABPP LC-MS, serine hydrolase panel, hits give low values
PNPLA8 = conditions: SILAC ABPP LC-MS, serine hydrolase panel, hits give low values
PPME1 = conditions: SILAC ABPP LC-MS, serine hydrolase panel, hits give low values
PRCP = conditions: SILAC ABPP LC-MS, serine hydrolase panel, hits give low values
PREPL = conditions: SILAC ABPP LC-MS, serine hydrolase panel, hits give low values
[1] = biological target: Platelet-activating factor acetylhydrolase 2, cytoplasmic (Mus musculus) (UniProt Q8VDG7); conditions: SILAC ABPP LC-MS, serine hydrolase panel, PAFAH2, hits give low values
[2] = biological target: Prolyl endopeptidase (Mus musculus) (UniProt Q9QUR6); conditions: SILAC ABPP LC-MS, serine hydrolase panel, PREP, hits give low values
SERHL = conditions: SILAC ABPP LC-MS, serine hydrolase panel, hits give low values
SIAE = conditions: SILAC ABPP LC-MS, serine hydrolase panel, hits give low values

Sequence of Platelet-activating factor acetylhydrolase 2, cytoplasmic (Mus musculus) (Q8VDG7 whole entry, looked up): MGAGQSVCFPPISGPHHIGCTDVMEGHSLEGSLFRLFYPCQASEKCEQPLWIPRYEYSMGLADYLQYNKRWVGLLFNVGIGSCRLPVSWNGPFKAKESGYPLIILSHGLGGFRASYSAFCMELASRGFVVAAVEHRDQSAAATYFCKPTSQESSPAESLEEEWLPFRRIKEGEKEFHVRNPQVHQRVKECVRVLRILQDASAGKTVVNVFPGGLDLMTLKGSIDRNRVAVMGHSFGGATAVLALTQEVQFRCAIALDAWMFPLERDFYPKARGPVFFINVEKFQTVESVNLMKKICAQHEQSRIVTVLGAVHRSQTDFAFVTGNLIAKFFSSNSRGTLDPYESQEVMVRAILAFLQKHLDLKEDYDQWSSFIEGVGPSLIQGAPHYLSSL
Sequence of Prolyl endopeptidase (Mus musculus) (Q9QUR6 whole entry, looked up): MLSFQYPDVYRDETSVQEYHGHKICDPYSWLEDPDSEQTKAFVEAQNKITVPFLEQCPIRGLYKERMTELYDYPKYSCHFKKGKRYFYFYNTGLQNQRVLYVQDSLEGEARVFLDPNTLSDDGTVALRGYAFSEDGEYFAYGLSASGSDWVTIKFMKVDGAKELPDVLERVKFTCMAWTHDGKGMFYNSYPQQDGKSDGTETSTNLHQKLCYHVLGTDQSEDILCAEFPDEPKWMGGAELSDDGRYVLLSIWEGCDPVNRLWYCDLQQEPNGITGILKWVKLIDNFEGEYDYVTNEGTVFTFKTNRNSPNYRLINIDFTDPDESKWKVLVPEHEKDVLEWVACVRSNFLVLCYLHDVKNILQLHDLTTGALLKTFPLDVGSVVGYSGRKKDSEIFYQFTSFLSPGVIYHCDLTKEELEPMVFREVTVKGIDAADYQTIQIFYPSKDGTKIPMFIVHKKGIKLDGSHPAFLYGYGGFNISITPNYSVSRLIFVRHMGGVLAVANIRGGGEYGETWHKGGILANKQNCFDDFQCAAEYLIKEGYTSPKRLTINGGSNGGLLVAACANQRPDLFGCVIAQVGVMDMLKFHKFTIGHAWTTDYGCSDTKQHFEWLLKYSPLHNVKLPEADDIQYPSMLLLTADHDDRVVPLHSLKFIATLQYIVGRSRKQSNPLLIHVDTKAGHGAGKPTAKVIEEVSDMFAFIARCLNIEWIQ

SILAC ratio (probe-treated/control) (AADACL1): 1.3 (inactive) | SILAC ratio (probe-treated/control) (ABHD10): 1.3 (inactive) | SILAC ratio (probe-treated/control) (ABHD11): 0.02 | SILAC ratio (probe-treated/control) (ABHD12): 1.3 (inactive) | SILAC ratio (probe-treated/control) (ABHD6): 0.9 (inactive) | SILAC ratio (probe-treated/control) (ACOT1): 1 (inactive) | SILAC ratio (probe-treated/control) (ACOT2): 1.1 (inactive) | SILAC ratio (probe-treated/control) (ACOT7): 1.5 (inactive) | SILAC ratio (probe-treated/control) (APEH): 1.4 (inactive) | SILAC ratio (probe-treated/control) (BAT5): 1.5 (inactive) | SILAC ratio (probe-treated/control) (CTSA): 1.3 (inactive) | SILAC ratio (probe-treated/control) (DDHD1): 2 (inactive) | SILAC ratio (probe-treated/control) (DPP4): 1 (inactive) | SILAC ratio (probe-treated/control) (DPP7): 1.3 (inactive) | SILAC ratio (probe-treated/control) (DPP8): 1.5 (inactive) | SILAC ratio (probe-treated/control) (DPP9): 1.5 (inactive) | SILAC ratio (probe-treated/control) (ESD): 1.4 (inactive) | SILAC ratio (probe-treated/control) (FAAH): 1.5 (inactive) | SILAC ratio (probe-treated/control) (FAM108B1): 1.3 (inactive) | SILAC ratio (probe-treated/control) (FASN): 1.5 (inactive) | SILAC ratio (probe-treated/control) (IAH1): 1.4 (inactive) | SILAC ratio (probe-treated/control) (LACTB): 1.5 (inactive) | SILAC ratio (probe-treated/control) (LIPA): 1.4 (inactive) | SILAC ratio (probe-treated/control) (LYPLA1): 1.5 (inactive) | SILAC ratio (probe-treated/control) (LYPLA2): 1.5 (inactive) | SILAC ratio (probe-treated/control) (LYPLA3): 1.5 (inactive) | SILAC ratio (probe-treated/control) (PAFAH1B2): 1.6 (inactive) | SILAC ratio (probe-treated/control) (PAFAH1B3): 1.3 (inactive) | SILAC ratio (probe-treated/control) (PARL): 1.5 (inactive) | SILAC ratio (probe-treated/control) (PLA2G6): 1.4 (inactive) | SILAC ratio (probe-treated/control) (PNPLA6): 1.4 (inactive) | SILAC ratio (probe-treated/control) (PNPLA8): 1.3 (inactive) | SILAC ratio (probe-treated/control) (PPME1): 1.5 (inactive) | SILAC ratio (probe-treated/control) (PRCP): 1.5 (inactive) | SILAC ratio (probe-treated/control) (PREPL): 1.2 (inactive) | SILAC ratio (probe-treated/control) [1]: 1.3 (inactive) | SILAC ratio (probe-treated/control) [2]: 1.4 (inactive) | SILAC ratio (probe-treated/control) (SERHL): 1.5 (inactive) | SILAC ratio (probe-treated/control) (SIAE): 1.5 (inactive)
SMILES: COCC1CCCCN1C(=O)n1ncc(C(O)(c2ccccc2)c2ccccc2)n1 (centres undefined)

— PubChem BioAssay AID504522 (The Scripps Research Institute Molecular Screening Center, 2011)
